Data: BindingDB's records for doi:10.1016/0896-6273(93)90149-l (The Scripps Research Institute, 1993)

How the values were obtained:
[1] = biological target: 5-hydroxytryptamine receptor 7 (Rattus norvegicus, UniProt P32305)
[2] = biological target: T1, 5-hydroxytryptamine receptor 1A (Rattus norvegicus, UniProt P19327)
T1 sequence (P19327 whole entry): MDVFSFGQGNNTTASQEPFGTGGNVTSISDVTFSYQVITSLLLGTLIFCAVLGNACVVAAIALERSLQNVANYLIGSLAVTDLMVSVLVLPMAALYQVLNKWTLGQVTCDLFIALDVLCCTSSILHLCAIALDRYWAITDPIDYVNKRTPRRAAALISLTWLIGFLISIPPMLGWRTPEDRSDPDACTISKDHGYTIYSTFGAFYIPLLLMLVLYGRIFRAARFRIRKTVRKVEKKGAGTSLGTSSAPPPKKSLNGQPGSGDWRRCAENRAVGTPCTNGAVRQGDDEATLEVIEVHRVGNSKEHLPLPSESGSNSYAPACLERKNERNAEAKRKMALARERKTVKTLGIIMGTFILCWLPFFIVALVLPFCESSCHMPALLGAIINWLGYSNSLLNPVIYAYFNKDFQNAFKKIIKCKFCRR

Sequence of 5-hydroxytryptamine receptor 7 (P32305 whole entry): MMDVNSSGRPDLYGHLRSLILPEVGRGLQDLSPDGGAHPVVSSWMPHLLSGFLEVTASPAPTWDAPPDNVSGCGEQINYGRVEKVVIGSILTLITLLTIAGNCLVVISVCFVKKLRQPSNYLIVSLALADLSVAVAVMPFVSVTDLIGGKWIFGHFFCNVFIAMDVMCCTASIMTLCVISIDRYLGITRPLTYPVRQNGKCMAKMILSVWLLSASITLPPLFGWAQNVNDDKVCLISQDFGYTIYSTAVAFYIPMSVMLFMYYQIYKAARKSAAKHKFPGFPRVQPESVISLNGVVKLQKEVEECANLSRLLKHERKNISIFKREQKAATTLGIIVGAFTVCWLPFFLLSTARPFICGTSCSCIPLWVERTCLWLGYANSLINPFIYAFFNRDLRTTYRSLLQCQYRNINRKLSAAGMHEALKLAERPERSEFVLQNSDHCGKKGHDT

Row | SMILES | Ki [1] | Ki [2]
1 | CCCN(CCC)C1CCc2cccc(O)c2C1 (stereo not given) | 0.053 µM | 
2 | Cc1nc2sccn2c(=O)c1CCN1CCC(=C(c2ccc(F)cc2)c2ccc(F)cc2)CC1 | 0.033 µM | 
3 | CC[C@@H](CO)NC(=O)[C@@H]1C=C2c3cccc4c3c(cn4C)C[C@H]2N(C)C1 | 0.017 µM | 0.545 µM
4 | NCCc1ccc(O)c(O)c1 | 0.545 µM | 0.545 µM
5 | COc1ccccc1N1CCN(CCCCN2C(=O)c3ccccc3C2=O)CC1 [2-{4-[4-(2-Methoxy-phenyl)-piperazin-1-yl]-butyl}-isoindole-1,3-dione] | 0.0791 µM | 
6 | CN1C[C@H](C(=O)N[C@]2(C)O[C@@]3(O)[C@@H]4CCCN4C(=O)[C@H](Cc4ccccc4)N3C2=O)C=C2c3cccc4[nH]cc(c34)C[C@H]21 [12'-hydroxy-2'-methyl-5'alpha-(phenylmethyl)ergotaman-3',6',18-trione] | 0.017 µM | 0.003 µM
7 | O=C1CC2(CCCC2)CC(=O)N1CCCCN1CCN(c2ncccn2)CC1 [BUSPAR] | 0.375 µM | 
8 | CC(C)NCC(O)COc1cccc2[nH]ccc12 (stereo not given) [LB-46] | 0.545 µM | 0.031 µM
9 | CN1C[C@@H](NS(=O)(=O)N(C)C)C[C@@H]2c3cccc4c3c(cn4C)C[C@H]21 [MESULERGINE] | 0.0093 µM | 0.545 µM
10 | CN1C[C@H](CNC(=O)OCc2ccccc2)C[C@@H]2c3cccc4c3c(cn4C)C[C@H]21 [METERGOLINE] | 0.016 µM | 0.273 µM
11 | CNS(=O)(=O)Cc1ccc2[nH]cc(CCN(C)C)c2c1 [Sumax] | 0.545 µM | 
12 | COc1cc(N)c(Cl)cc1C(=O)NC1CN2CCC1CC2 (stereo not given) [ZACOPRIDE,R] | 0.545 µM | 
13 | NCCc1c[nH]c2ccc(C(N)=O)cc12 [[3H]-5-carboxamidotryptamine] | 0.00045 µM | 
14 | CSc1ccc2c(c1)C(N1CCN(C)CC1)Cc1ccccc1S2 (stereo not given) [methanesulfonic acid;1-methyl-4-(3-methylsulfanyl-5,6-dihydrobenzo[b][1]benzothiepin-5-yl)piperazine] |  | 0.0087 µM
